What was measured:
[1] = Hypoglycemic potency (United States Pharmacopeia method); format: in vivo; conditions: USP Vol. 18 hypoglycemic potency assay; relative to unmodified insulin
Experimental: Hypoglycemic potency of the modified insulin was measured as described in "The United States Pharmacopeia", Mark Publishing Co., Vol. 18, pp. 883-884 (1964). Bioactivity was 62% as compared to unmodified insulin.

[2] = Aggregation tendency by turbidity of the solution (absorbance at 400 nm); format: physicochemical; conditions: 0 to 0.1 A non-aggregated, above 0.3 aggregated
Experimental: The tendency of modified insulin to aggregate was assessed by measuring the turbidity of the solution. This method is based on the work of Leach and Scheraga (S. J. Leach and H. A. Scheraga (1964) J. Amer. Chem. Soc. 82, 4790-4792) who stated that absorbancy observed in insulin solutions between 350 and 600 nm is due to light scattering of aggregated particles. […] After deaeration under vacuo for 60 min. 1 ml of this solution was diluted with 1 ml of PBS, and the turbidity was measured on a Hewlett Packard spectrophotometer type HP 8590, utilizing as a blank a non-aggregated sample diluted by 1 volume of 8M guanidine hydrochloride. Aggregation was measured by the difference in absorbance determined at 400 nm for the two samples. Non-aggregated samples gave absorbance values of 0 to 0.1 Absorbance Unit(A), Values above 0.3 were considered to be aggregated.

| Substance | Bioactivity (hypoglycemic potency) as compared to unmodified insulin [1] [%] | Turbidity (difference in absorbance at 400 nm) ([2]; dissolved in PBS, passed 50 times through syringe with 26G needle, blank in guanidine hydrochloride) [A] | Turbidity (absorbance at 400 nm) ([2]; dissolved in distilled water, treated by the same procedure) [A] |
| --- | --- | --- | --- |
| Example 1: porcine sodium insulin sulphated with sulfuric acid and N,N' dicyclohexyl carbodiimide in dimethylformamide | 62 | 0.08 | – |
| Example 4: porcine sodium insulin phosphorylated with concentrated phosphoric acid and DCC in DMF | 85 | – | – |
| unmodified porcine sodium insulin: unmodified porcine sodium insulin, starting material and comparator [reference compound] | – | – | 0.51 |

— US4534894A, “Process for sulphation and phosphorylation of proteins and peptides” (The Rockefeller University, priority 1982, dated 1985)
